Experimental data as given in PMC11512107, “Structural and biochemical analysis of ligand binding in yeast Niemann–Pick type C1–related protein” (Life Science Alliance, 2024).

Columns and labels:
[1] = molecular target: T1, NPC2 to the NTD (Saccharomyces cerevisiae, UniProt Q12200); assay: In vitro pac-lipid transfer assay from NPC2 to the NTD; type: biochemical; settings: His-tagged NPC2 preloaded with soluble pac-lipid; GFP baseline, STARD3 negative control
T1 construct: residues 1–249, UniProt: Q12200; residues 1–173, UniProt: Q12408; deca-histidine tag (C, cleaved yes); made in house; host or cells: Saccharomyces cerevisiae strain DSY-5
Excerpt: The consistent interaction of sphingosine with both the NTD and NPC2 observed in this study inspired us to examine whether the transfer of pacSph between the two proteins could be reconstituted in vitro. To this end, a protein-to-protein sphingosine transfer assay using solubilized, free pacSph was designed (Fig 6A). […] As a control for specificity of transfer, the lipid binding domain of a mammalian STARD3 (His-STARD3-StART) was used because this protein was previously shown to interact with sphingosine in related work ([51] Preprint), but it is not located inside lysosomes and, therefore, is not expected to interact with the NTD. His-tagged NPC2, His-sfGFP, or His-STARD3-StART were immobilized on NiNTA beads, preloaded with pacSph, and incubated with the NTD. After removal of the beads, the NTD was subjected to UV crosslinking and clicked with a fluorophore, and the resulting lipid–protein complexes were visualized by SDS–PAGE.
Purified His-tagged proteins (5 μM of sfGFP, STARD3, or NPC2) were incubated with 10 μM pacSph in PBS for 60 min at 25°C at 500 rpm (Comfort thermomixer, Eppendorf). Next, the His-tagged proteins were captured on NiNTA beads and washed 5x with PBS to remove unbound pacSph. […] For data analysis, the background was subtracted and the +UV/−UV ratios were quantified for each sample as described previously. […] Statistics were calculated with the Mann–Whitney U test.

[2] = molecular target: T2, NPC2 (Saccharomyces cerevisiae, UniProt Q12408); assay: In vitro liposome crosslinking assay of pac-lipids with NPC2; type: binding; settings: liposomes with 1.5 mol% pac-lipid (1 μM), 1.5 μM NPC2
T2 construct: residues 1–173, UniProt: Q12408; thrombin cleavage site (C); deca-histidine tag (C, cleaved yes); made in house; host or cells: Saccharomyces cerevisiae strain DSY-5
T2 sequence (Q12408 22-173): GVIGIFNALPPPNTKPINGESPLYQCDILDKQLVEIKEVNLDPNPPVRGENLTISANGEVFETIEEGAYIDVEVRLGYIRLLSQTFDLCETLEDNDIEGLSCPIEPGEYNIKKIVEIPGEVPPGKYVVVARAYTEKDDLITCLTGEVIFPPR
Method: To compare with the interaction profile of the NTD, crosslinking assays were also performed with purified, delipidated NPC2 (Fig S4A and B). […] NPC2 crosslinks well with all tested pac-lipids but, as for the NTD, most strongly with pacChol (+UV/−UV ratio = 1.91). Robust and consistent crosslinking with pacSph (+UV/−UV ratio = 1.64), pacCer (+UV/−UV = 1.67), and pacPC (+UV/−UV = 1.63) were observed. The crosslinking efficiency for cholesterol and sphingosine analogs was higher for the NTD, whereas crosslinking with ceramide and PC analogs seemed stronger with NPC2.
Lipids from stock vials were dissolved in chloroform and mixed at the desired molar ratio. For in vitro crosslinking, most liposomes consisted of 88.5 mol% DOPC as carrier lipid, 10 mol% DOPS, and 1.5 mol% respective pac-lipid. The pac-lipids were incorporated into liposomes at low concentrations (1.5 mol%) to ensure homogenous distribution and avoid micelle formation. The solvent was evaporated in a rotary evaporator (Hei-VAP Core, Heidolph) for 30 min at 42°C at 150 rpm to create a thin lipid film. Lipid films were hydrated with filtered and degassed PBS (137 mM NaCl, 2.7 mM KCl, 10 mM Na2HPO4, 1.8 mM KH2PO4, pH 7.4). Solutions of hydrated lipids (with a total lipid concentration of 2 mM) were subjected to five freeze–thaw cycles in liquid nitrogen and warm water (42°C) to facilitate breakup of large structures and support formation of smaller multilamellar vesicles. Lipid solutions were stored at −20°C. Before use, liposomes were extruded by passing 20x through a 100-nm pore size polycarbonate filter (Nuclepore; Whatman) using a hand extruder (Avanti Polar Lipids). Extruded liposomes were stored at 4°C, protected from light, and used within 1–2 d.
Extruded liposomes were diluted in PBS until a final lipid concentration of 60 μM, including 1 μM pac-lipid. Purified proteins were added until a final concentration of 1.5 μM in a reaction volume of 100 μl. Protein–liposome mixtures were incubated in 0.5-ml Eppendorf tubes for 30 min at 37°C at 400 rpm (Comfort thermomixer, Eppendorf), then crosslinked (or not) by exposure to 365-nm UV light for 15 min at 4°C using a 100-W mercury lamp (Blak-Ray B-100AP). After crosslinking, the click reaction was performed by adding 0.7 μl of freshly prepared click mix into the sample tubes. The final concentrations of click reagents in sample tubes were 80 μM CuSO4 (Merck), 3 μM TBTA (Merck), 3 μM AF647-picolyl azide (Jena Bioscience), and 80 μM ascorbic acid (Merck). Fresh stock of ascorbic acid solution in water was prepared every time and added to the click mix immediately before starting the click reaction. Click reactions were allowed to proceed for 2 h at 37°C at 400 rpm with the thermomixer. Then, samples were concentrated in a vacuum evaporator for 30 min set to 30°C and supplemented with 4x Lämmli buffer (250 mM Tris, pH 6.8, 9.2% SDS, 40% glycerol, 0.2% bromophenol blue, 100 mM DTT). Samples were boiled for 5 min at 95°C, and clicked protein–lipid complexes were resolved by SDS–PAGE. After extensive destaining in a destain solution (65% water, 25% isopropanol, and 10% acetic acid), the AF647 (a structural analog of Alexa Fluor 647) and Coomassie images were acquired using the LI-COR Odyssey imaging system. Data were evaluated by subtracting background fluorescence, followed by comparing the AF647 signal between crosslinked and non-crosslinked samples, normalized to protein loading based on Coomassie staining. The resulting values are described as +UV/−UV ratios. Statistics were calculated with the Mann–Whitney U test.

[3] = molecular target: T3, NTD of NCR1 (Saccharomyces cerevisiae, UniProt Q12200); assay: In vitro liposome crosslinking assay of pac-lipids with the NTD; type: binding; settings: liposomes with 1.5 mol% pac-lipid (1 μM), 1.5 μM NTD, average ratio
T3 construct: residues 1–249, UniProt: Q12200; thrombin cleavage site (C); deca-histidine tag (C, cleaved yes); made in house; host or cells: Saccharomyces cerevisiae strain DSY-5
Excerpt: In a parallel approach, the substrate scope of the NTD and NPC2 was probed with photo-activatable and clickable (pac) lipids. Pac-lipids contain small chemical modifications for click chemistry reactions, with fluorophores such as AF647 (a structural analog of Alexa Fluor 647), and for UV-activated photo-crosslinking, respectively ([45]). In contrast to NBD-tagged lipids delivered in solution, pac-lipids such as pac-cholesterol (pacChol), pac-phosphatidylcholine (pacPC), pac-sphingosine (pacSph), and pac-ceramide (pacCer) were reconstituted in liposomal membranes (Fig 5A and B). As expected, the delipidated NTD crosslinks with pacChol (average +UV/−UV ratio = 2.11). Crosslinking of the NTD with pacSph (+UV/−UV = 1.73) and, to a lesser extent, with pacCer and pacPC (+UV/−UV = 1.40 and 1.12), respectively, was also detected (Fig 5C and D).
Lipids from stock vials were dissolved in chloroform and mixed at the desired molar ratio. […]
Extruded liposomes were diluted in PBS until a final lipid concentration of 60 μM, including 1 μM pac-lipid. […] Data were evaluated by subtracting background fluorescence, followed by comparing the AF647 signal between crosslinked and non-crosslinked samples, normalized to protein loading based on Coomassie staining. […] Statistics were calculated with the Mann–Whitney U test.

T1 sequence (Q12200 20-249): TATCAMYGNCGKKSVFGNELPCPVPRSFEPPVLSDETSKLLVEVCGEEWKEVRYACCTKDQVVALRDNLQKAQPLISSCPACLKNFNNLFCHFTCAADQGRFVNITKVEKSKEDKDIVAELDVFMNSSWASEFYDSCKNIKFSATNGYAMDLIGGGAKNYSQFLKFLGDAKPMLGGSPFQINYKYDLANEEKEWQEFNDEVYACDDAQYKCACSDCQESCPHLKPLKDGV
T3 sequence (Q12200 20-249): as above

transfer of pac-lipid from NPC2 to the NTD (crosslinking with NTD) [1]: increased crosslinking
+UV/−UV ratio (crosslinking with NPC2) [2]: 1.64
+UV/−UV ratio (crosslinking with NTD) [3]: 1.73
Compound: C#CCCCC1(CCCCCCCC/C=C/[C@H](O)[C@H](N)CO)N=N1 [pacSph]
